Measured values reported in US9028856B2, “Synergistic pesticide compositions” (priority 2008, dated 2015).

How the values were obtained:
[1] = tested on: Musca domestica, resistant strain Reichswald; experiment: Efficacy of formulations on surfaces (glazed/unglazed tiles), house flies, continuous exposure; assay type: in vivo; conditions: strain RW resistant, acetone solutions on glazed tiles, mean of three replicates
Protocol: All surfaces were provided with talcum-coated glass rings (diameter 9.5 cm, height 5.5 cm) one day later.
The test insects were anesthetized with CO2, 20 individuals were placed onto the treated surfaces and the glass ring was covered with wire gauze ring. […]
Each test consisted of at least one replicate and any additional replicates are noted.
Test Insects: House flies (Musca domestica) of both sexes, susceptible strain WHO(N) and resistant strain Reichswald
Evaluation: Mortality was evaluated cumulatively at different times. […]
Test Insects: Culex quinquefasciatus (adults) (3 minutes exposure time according to USDA Petri Dish Method), Musca domestica (adults), susceptible and resistant strain, Blattella germanica (males), Cimex lectularius (adults) (all: continuous exposure time)
Application: The EC formulation (diluted with water 1:9) were applied as 0.85 ml solutions onto glazed tiles (15 cm×15 cm)

[2] = tested on: Musca domestica, resistant strain Reichswald; experiment: as above; assay type: in vivo; conditions: strain RW resistant, acetone solutions on glazed tiles, mean of three replicates; remark: listed apart in the source
[3] = tested on: Odorous House ant, Tapinoma sessile; experiment: Knockdown/mortality of ant workers under continuous exposure on treated glazed tile; assay type: in vivo; conditions: Table 43, aqueous permethrin/adjuvant, glazed tile
How it was run: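 Treatments applied to about 161 cm2 glazed tile and dried overnight, with at least three replicates.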

[4] = tested on: susceptible/normal German cockroach (Monheim strain), Blattella germanica; experiment: Knockdown/mortality of male cockroaches under continuous exposure on treated glazed tile; assay type: in vivo; conditions: Table 45, aqueous permethrin/adjuvant, glazed tile, Monheim strain
How it was run: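 Male cockroaches continuously exposed on treated glazed tile, dried overnight before exposure; at least three replicates. Knockdown/mortality scored at intervals from 5 or 10 min, over runs lasting 20 min to 24 h depending on test.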

Aedes aegypti mosquito = experiment: USDA Petri Dish Method, 3 min exposure to dipped fiberglass window screen; assay type: in vivo; conditions: dipped screen, 3 min exposure
Protocol: MATERIALS AND METHODS: Aqueous solutions of 1% deltamethrin with and without an adjuvant composition, which is sold under the tradename Suspend® SC. […] Pre-cut fiberglass screen (5″×5″, or 161.3 cm^2) were dipped in each treatment solution and excessive solution was allowed to drain completely (see FIG. 23 a). Weight of the solution coated on the screen was then determined. The treated screen was then allowed to air-dry overnight. USDA Petri Dish Method was used as initial screening protocol (see FIG. 23 b). Twenty, 4-6 day old female Aedes aegypti were exposed to treated window screen for 3 minutes and then moved onto a clean untreated white paper index card. Treatments were replicated a minimum of three times. Mosquito knockdown was evaluated at 3 minute intervals for the first 15 minutes and then at 5 minute intervals for the remainder of an hour. A small cotton ball with sucrose solution was added on the screen top of the Petri dish as a drinking source. Mortality was evaluated at 24 hours after exposure.
MATERIALS AND METHODS: Several rates of permethrin without adjuvant were prepared using product sold under the tradename Permanone® 40 to determine an effective rate against Aedes aegypti mosquitoes. After determining an effective rate range, aqueous solutions of permethrin at 1.25, 1.0 and 0.05% AI were prepared with and without adjuvant. […] Pre-cut fiberglass screens (5″×5″ or 161.3 cm^2) were dipped in each treatment solution allowing excessive solution to drain completely. Weight of the solution coated on the screen was then determined. The treated screen was then allowed to air-dry overnight. USDA Petri Dish Method was used as initial screening protocol (see photo, right). Twenty, 4-6 day old female Aedes aegypti were exposed to treated window screen for 3 minutes and then moved to a clean untreated white paper index card. Treatments were replicated a minimum of three times. Mosquito knockdown was evaluated at 3 minute intervals for the first 15 minutes and then at 5 minute intervals for the remainder of an hour. A small cotton ball with sucrose solution was added on the screen top of the petri-dish as a drinking source. Mortality was evaluated at 24 hours after exposure.

[5] = tested on: Argentine ant, Linepithema humile; experiment: Knockdown/mortality of ant workers under continuous exposure on treated glazed tile; conditions: Table 41, aqueous permethrin/adjuvant, glazed tile
How it was run: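 0.5% AI imidacloprid in acetone, alone or with 0.1, 1.0 or 5.0% additive (benzenepropanoic acid, oleic acid, methyl oleate, methyl linoleate, methyl palmitate or BHA), 1 ml dried overnight on glazed tile (~161 cm^2). Ten workers confined under continuous exposure, water from 3 h; knockdown/mortality scored at intervals and 24 h; ≥3 replicates.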

[6] = tested on: bait averse/resistant German cockroach (IHOP strain), Blattella germanica; experiment: Knockdown/mortality of male cockroaches under continuous exposure on treated glazed tile; assay type: in vivo; conditions: Table 42, aqueous permethrin/adjuvant, IHOP strain
Protocol: Treatments were allowed to dry overnight. […] Treatments were replicated a minimum of three times. Evaluations for cockroach knockdown/mortality were made at various intervals for 1 hour and at 24 hours after exposure.
Treatments were allowed to dry overnight. […] Evaluations for cockroach knockdown/mortality were made at various intervals and at 60 minutes after exposure.
(§1) Treatments were allowed to dry overnight. […] Treatments were replicated a minimum of three times.

[7] = tested on: Red Imported Fire ant (RIFA), Solenopsis invicta; experiment: Knockdown/mortality of ant workers under continuous exposure on treated glazed tile; assay type: in vivo; conditions: Table 44, aqueous permethrin/adjuvant, glazed tile
Description: Treatments were allowed to dry overnight. […] Treatments were replicated minimum three times.
as §1

[8] = Table 39, permethrin without adjuvant (Permanone 40)
[9] = Table 40, aqueous permethrin/adjuvant

CC1(C)[C@H](C(=O)O[C@H](C#N)c2cccc(Oc3ccccc3)c2)[C@@H]1C=C(Br)Br [0.020% DTM]
% Mortality after ([1]; 15′): 0% | % Mortality after ([1]; 30′): 0% | % Mortality after ([1]; 1 h): 0% | % Mortality after ([1]; 3 h): 0% | % Mortality after ([2]; 2 h): 0% | % Mortality after ([2]; 24 h): 7%

CC1(C)C(C=C(Cl)Cl)C1C(=O)OCc1cccc(Oc2ccccc2)c1 (centres unmarked) [Permethrin (0.5%)]
Average % Mortality after 10 min ([3]; 10 min): 13% | Average % Mortality after 20 min ([3]; 20 min): 50% | Average % Mortality after 30 min ([3]; 30 min): 93% | Average % Mortality after 60 min ([3]; 60 min): 100% | Average % Mortality after 10 min ([4]; 10 min): 100% | Average % Mortality after 20 min ([4]; 20 min): 100% | Average % Mortality after 30 min ([4]; 30 min): 100% | Average % Mortality after 4 hr ([4]; 4 hr): 100% | Average % Knockdown & Mortality after 3 min (Aedes aegypti mosquito; [8]): 0% | Average % Knockdown & Mortality after 3 min (Aedes aegypti mosquito; [9]): 0% | Average % Knockdown & Mortality after 9 min (Aedes aegypti mosquito; [8]): 0% | Average % Knockdown & Mortality after 9 min (Aedes aegypti mosquito; [9]): 1% | Average % Knockdown & Mortality after 15 min (Aedes aegypti mosquito; [8]): 0% | Average % Knockdown & Mortality after 15 min (Aedes aegypti mosquito; [9]): 1% | Average % Knockdown & Mortality after 30 min (Aedes aegypti mosquito; [8]): 0% | Average % Knockdown & Mortality after 30 min (Aedes aegypti mosquito; [9]): 0% | Average % Knockdown & Mortality after 60 min (Aedes aegypti mosquito; [8]): 0% | Average % Knockdown & Mortality after 60 min (Aedes aegypti mosquito; [9]): 0% | Average % Knockdown & Mortality after 24 hr (Aedes aegypti mosquito; [8]): 9% | Average % Knockdown & Mortality after 24 hr (Aedes aegypti mosquito; [9]): 6% | Average % Mortality after 5 min ([5]; 5 min): 58% | Average % Mortality after 10 min ([5]; 10 min): 100% | Average % Mortality after 15 min ([5]; 15 min): 100% | Average % Mortality after 20 min ([5]; 20 min): 100% | Average % Mortality after 10 min ([6]; 10 min): 40% | Average % Mortality after 20 min ([6]; 20 min): 87% | Average % Mortality after 40 min ([6]; 40 min): 93% | Average % Mortality after 60 min ([6]; 60 min): 100% | Average % Mortality after 5 min ([7]; 5 min): 43% | Average % Mortality after 15 min ([7]; 15 min): 100% | Average % Mortality after 30 min ([7]; 30 min): 100% | Average % Mortality after 60 min ([7]; 60 min): 100%
